Assay results from publication PMC5228037, “Discovery and Mechanistic Characterization of Selective Inhibitors of H2S-producing Enzyme: 3-Mercaptopyruvate Sulfurtransferase (3MST) Targeting Active-site Cysteine Persulfide” (Scientific Reports, 2017).
“Also recorded” adds a separate entry of the source.

Target: T1, non-persulfurated 3MST (Mus musculus, UniProt Q99J99)
T1 construct: The recombinant full-length wild-type mouse 3MST; made in house; host or cells: E. coli JM109 (DE3)
T1 sequence (Q99J99 1-297): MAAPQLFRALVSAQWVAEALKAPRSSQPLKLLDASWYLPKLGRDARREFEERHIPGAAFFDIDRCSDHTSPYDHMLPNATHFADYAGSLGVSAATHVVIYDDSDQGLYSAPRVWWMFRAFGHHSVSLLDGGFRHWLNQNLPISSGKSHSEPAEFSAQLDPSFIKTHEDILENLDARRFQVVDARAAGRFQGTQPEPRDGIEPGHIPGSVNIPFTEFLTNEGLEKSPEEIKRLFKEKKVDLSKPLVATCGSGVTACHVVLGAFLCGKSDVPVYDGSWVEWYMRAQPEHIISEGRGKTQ
Experiment: ITC analysis with non-persulfurated 3MST
Type: binding
Details: 3MP-untreated 3MST
Procedure: The recombinant full-length wild-type mouse 3MST and mutant m3MST (C65S/C255S/C264S) were expressed as an N-terminal His-tagged protein ([…]-3MST) in E. coli JM109 (DE3). The pET44a(+) vector (Novagen) was used as an expression vector. Cells were grown at 37 °C in LB broth (Miller) or 2 × YT broth containing 0.1 g/L ampicillin to OD600 about 0.5, and then protein expression was induced by adding IPTG (final conc. 0.5 mM (LB), 1 mM (2 × YT)). Cells were cultured overnight at 18–20 °C with shaking and harvested at 4 °C by centrifugation at 9,000 rpm for 5 min. Harvested cells were resuspended in lysis buffer containing 0.1 M HEPES-NaOH pH 8, 0.5 M NaCl, 0% or 10% glycerol, 0.5 mM TCEP, 1 mM PMSF, and 1% EtOH, and disrupted by sonication. Cell lysis solutions were centrifuged at 20,000 rpm for 20 min. […] The proteins were further purified on HisTrap HP (GE Healthcare) by increasing the imidazole concentration in buffer containing 0.02 M HEPES pH 8, 0.15 M NaCl, 10% glycerol, and 0.05 mM TCEP until proteins were eluted. Then the His-tag was removed by GST-fusion HRV 3 C protease digestion. […]

SMILES | Binding to non-persulfurated 3MST (ITC heat release)
Cc1cc(=O)[nH]c(SCC(=O)c2cccc3ccccc23)n1 [compound 3] | no heat release; also recorded: do not bind
NC(=O)c1ccsc1NC(=O)CSc1nc2ccccc2c(=O)[nH]1 [compound 1] | no heat release; also recorded: do not bind
